For one assay, the target named is platelet P2Y12 receptor (Rattus norvegicus, UniProt Q9EPX4).
The test system of assay [1] is ADP-induced platelet aggregation.
[2] abbreviates: single oral dose 10 mg/kg, 4 h after administration, P < 0.05.

Where two headings read alike, the source gives them in different places.

Sequence of platelet P2Y12 receptor (Q9EPX4 whole entry): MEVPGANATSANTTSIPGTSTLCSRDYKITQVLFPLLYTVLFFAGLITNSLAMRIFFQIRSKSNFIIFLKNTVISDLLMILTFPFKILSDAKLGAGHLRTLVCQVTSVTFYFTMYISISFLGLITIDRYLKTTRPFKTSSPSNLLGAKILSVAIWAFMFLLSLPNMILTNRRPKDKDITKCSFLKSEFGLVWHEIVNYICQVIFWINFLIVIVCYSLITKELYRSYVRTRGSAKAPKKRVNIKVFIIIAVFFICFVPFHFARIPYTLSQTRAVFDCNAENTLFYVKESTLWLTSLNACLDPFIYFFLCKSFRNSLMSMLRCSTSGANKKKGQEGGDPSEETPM

Take `COC(=O)[C@H](c1ccccc1Cl)N1CCc2sccc2C1` [Clop, Clopidogrel]: the “change in P2Y12 occupancy between D1H4 and D7H4” value on platelet P2Y12 receptor (3 mg/kg oral for 7 consecutive days, male SD rats, P < 0.01) was “gradual and significant increase”. For the same molecule, the “decrease in P2Y12 occupancy in T2DM rats vs control rats” value at platelet P2Y12 receptor (single oral dose 10 mg/kg, 1 h post-administration, P < 0.05) is listed as 50.7%; at platelet P2Y12 receptor (single oral dose 10 mg/kg, 4 h post-administration, P < 0.001) it was 64.4%. The “time of maximal P2Y12 occupancy” value on platelet P2Y12 receptor (single oral dose 10 mg/kg, male SD rats, post-administration) worked out at 4 h. The “mean IPA” value in assay [1] (3 mg/kg repeated oral dose group, male SD rats, 5 umol/L ADP) is 14.0 ± 12.5%; in assay [1] (30 mg/kg repeated oral dose group, male SD rats, 5 umol/L ADP), 59.6 ± 10.1%. Also, in assay [1] (3, 10 and 30 mg/kg for 7 days, all three dose groups, male SD rats), the “time for platelet activity to recover after cessation of administration” value is “five”. Besides, in assay [1] (co-administration 10 mg/kg Clop + 10 mg/kg omeprazole, after 7 days, P < 0.01), the “decrease in IPA vs Clop alone” value is 57.3%. In assay [1] (co-administration 10 mg/kg Clop + 10 mg/kg omeprazole, after 7 days, P < 0.05), the “increase in MPA vs Clop alone” value came out at 21.1%. In addition, in assay [1] (setting [2]), the “decrease in IPA in T2DM rats vs control rats” value is listed as 48.3%. Besides, the “increase in MPA in T2DM rats vs control rats” value in assay [1] (setting [2]) was found to be 33.2%. The “time of peak maximal inhibitory effect on platelet aggregation (MPA, IPA)” value in assay [1] (single oral dose 10 mg/kg, male SD rats, post-administration, 5 umol/L ADP) is reported as 4 h.

These data come from PMC11873646 (Acta Pharmaceutica Sinica. B, 2024).
